Source: the RepoRT retention time repository (doi:10.1016/j.chroma.2014.05.003)

Test: RP, Agilent ZORBAX Eclipse Plus C18, 50 × 4.6 mm, 1.8 µm, 0.5 mL/min, estimated dead time 1.1 min; A: water + 0.1% formic acid; B: acetonitrile + 0.1% formic acid; gradient (min/%B) 0/10 3/10 25/100 28/100
Details: stereoisomer not certain

**Q.** Which LC retention time does the source give for CCOC(=O)C1CC(=O)C(=C(O)C2CC2)C(=O)C1 (stereo not given) here?
**A.** Its LC retention time is 14.2 min.

**Q.** For CC1(C)SC2C(NC(=O)C(N)c3ccccc3)C(=O)N2C1C(=O)O (stereo not given), which LC retention time is on record?
**A.** Its LC retention time is 7.93 min.

**Q.** With CCN(CC)N=O as the compound, how does the LC retention time read?
**A.** Its LC retention time is 15.9 min.

**Q.** With COc1nc(NC(C)C)nc(NC(C)C)n1 as the compound, how does the LC retention time read?
**A.** The LC retention time was 9.02 min.

**Q.** For Cc1cccc(Nc2ccccc2C(=O)O)c1C, which LC retention time is on record?
**A.** Its LC retention time is 17.7 min.

**Q.** For CCOP(=S)(OCC)Oc1cnc2ccccc2n1, which LC retention time is on record?
**A.** Its LC retention time is 18.2 min.

**Q.** Which LC retention time does the source give for CCN(CC)C(=O)C(C)Oc1cccc2ccccc12 (stereo not given) here?
**A.** The LC retention time was 16.3 min.

**Q.** For CCN(CC)c1nc(C)cc(OP(=S)(OC)OC)n1, which LC retention time is on record?
**A.** The LC retention time was 19 min.

**Q.** With CC(=O)OC1C=CC2C3Cc4ccc(O)c5c4C2(CCN3C)C1O5 (stereo not given) as the compound, how does the LC retention time read?
**A.** The LC retention time was 4.94 min.

**Q.** Which LC retention time does the source give for CNC(=O)ON=C(C)C(C)SC (stereo not given) here?
**A.** The LC retention time was 9.65 min.

**Q.** Which LC retention time does the source give for COC(=O)c1ccc(C)cc1C1=NC(C)(C(C)C)C(=O)N1 (stereo not given) here?
**A.** Its LC retention time is 9.12 min.

**Q.** For CN=C(NC#N)NCCSCc1nc[nH]c1C, which LC retention time is on record?
**A.** The LC retention time was 1.83 min.

**Q.** With CNC(=O)Oc1cccc2c1OC(C)(C)C2O (stereo not given) as the compound, how does the LC retention time read?
**A.** Its LC retention time is 7.87 min.

**Q.** Which LC retention time does the source give for CC(N)Cc1ccccc1 (stereo not given) here?
**A.** The LC retention time was 3.82 min.

**Q.** Which LC retention time does the source give for CCCCCc1cc(O)c2c(c1)OC(C)(C)C1CCC(C(=O)O)=CC21 (stereo not given) here?
**A.** The LC retention time was 19.1 min.

**Q.** With CCn1cc(C(=O)O)c(=O)c2ccc(C)nc21 as the compound, how does the LC retention time read?
**A.** Its LC retention time is 11.5 min.

**Q.** Which LC retention time does the source give for CCC(C)C(=O)OC1CC(O)C=C2C=CC(C)C(CCC(O)CC(O)CC(=O)O)C21 (stereo not given) here?
**A.** Its LC retention time is 10.7 min.

**Q.** With CCCN(CC)CC1COC2(CCC(C(C)(C)C)CC2)O1 (stereo not given) as the compound, how does the LC retention time read?
**A.** The LC retention time was 12.5 min.

**Q.** With CCCN(CCC)C(=O)SCc1ccccc1 as the compound, how does the LC retention time read?
**A.** Its LC retention time is 20.4 min.

**Q.** For CCOc1ccc2c(c1)C(C)=CC(C)(C)N2, which LC retention time is on record?
**A.** The LC retention time was 11.8 min.

**Q.** For COC(=O)Nc1nc2ccc(Sc3ccccc3)cc2[nH]1, which LC retention time is on record?
**A.** Its LC retention time is 12.6 min.

**Q.** For CCC(C)c1ccccc1OC(=O)NC (stereo not given), which LC retention time is on record?
**A.** Its LC retention time is 15 min.

**Q.** Which LC retention time does the source give for Cn1c(=O)c2[nH]cnc2n(C)c1=O here?
**A.** Its LC retention time is 2.8 min.

**Q.** For CC(C)Cc1ccc(C(C)C(=O)O)cc1 (stereo not given), which LC retention time is on record?
**A.** The LC retention time was 16.6 min.

**Q.** For CNC(=O)ON=CC(C)(C)SC, which LC retention time is on record?
**A.** The LC retention time was 10.2 min.

**Q.** With CCSC(=O)N1CCCCCC1 as the compound, how does the LC retention time read?
**A.** Its LC retention time is 16 min.

**Q.** Which LC retention time does the source give for COC(=O)Nc1nc2ccc(S(=O)c3ccccc3)cc2[nH]1 (stereo not given) here?
**A.** The LC retention time was 8.64 min.

**Q.** Which LC retention time does the source give for CCCCCc1cc(O)c2c(c1)OC(C)(C)C1CCC(C)=CC21 (stereo not given) here?
**A.** Its LC retention time is 23.6 min.

**Q.** Which LC retention time does the source give for CCOP(=S)(OCC)SCSP(=S)(OCC)OCC here?
**A.** Its LC retention time is 21.7 min.

**Q.** Which LC retention time does the source give for O=C(O)c1ccccc1C(=O)Nc1cccc2ccccc12 here?
**A.** The LC retention time was 11.7 min.

**Q.** Which LC retention time does the source give for CCNc1nc(NCC)nc(SC)n1 here?
**A.** The LC retention time was 8.74 min.

**Q.** With Cc1cc(C)nc(Nc2ccccc2)n1 as the compound, how does the LC retention time read?
**A.** Its LC retention time is 11.6 min.

**Q.** Which LC retention time does the source give for CCOC(=O)NCCOc1ccc(Oc2ccccc2)cc1 here?
**A.** The LC retention time was 17 min.

**Q.** With Nc1ncn[nH]1 as the compound, how does the LC retention time read?
**A.** The LC retention time was 1.36 min.

**Q.** With CC12CCC3c4ccc(O)cc4CCC3C1CCC2O (stereo not given) as the compound, how does the LC retention time read?
**A.** The LC retention time was 13.4 min.

**Q.** For CC(C)NCC(O)COc1ccc(CC(N)=O)cc1 (stereo not given), which LC retention time is on record?
**A.** The LC retention time was 1.76 min.

**Q.** With c1ccc(Nc2ccccc2)cc1 as the compound, how does the LC retention time read?
**A.** Its LC retention time is 17.2 min.

**Q.** With CON=C(C(=O)NC1C(=O)N2C(C(=O)O)=C(COC(C)=O)CSC12)c1csc(N)n1 (stereo not given) as the compound, how does the LC retention time read?
**A.** The LC retention time was 6.29 min.

**Q.** For CCCCCCCCCCCC[N+](C)(C)Cc1ccccc1, which LC retention time is on record?
**A.** Its LC retention time is 16.2 min.

**Q.** For CCCC1CC(C(=O)NC(C(C)O)C2OC(SC)C(O)C(O)C2O)N(C)C1 (stereo not given), which LC retention time is on record?
**A.** Its LC retention time is 3.66 min.

**Q.** For COC(=O)C=C(C)OP(=O)(OC)OC, which LC retention time is on record?
**A.** The LC retention time was 9.1 min.

**Q.** For c1coc(-c2nc3ccccc3[nH]2)c1, which LC retention time is on record?
**A.** The LC retention time was 5.19 min.

**Q.** For CC(C)(C)NCC(O)c1ccc(O)c(CO)c1 (stereo not given), which LC retention time is on record?
**A.** The LC retention time was 1.63 min.

**Q.** Which LC retention time does the source give for CC1=C(C(=O)Nc2ccccc2)SCCO1 here?
**A.** The LC retention time was 13.1 min.

**Q.** With CS(=O)(=O)c1ccc(C(=O)C2C(=O)CCCC2=O)c([N+](=O)[O-])c1 as the compound, how does the LC retention time read?
**A.** Its LC retention time is 12 min.

**Q.** Which LC retention time does the source give for COC(=O)Nc1nc2ccc(C(=O)c3ccccc3)cc2[nH]1 here?
**A.** Its LC retention time is 10.7 min.

**Q.** For c1ccc2[nH]c(-c3cscn3)nc2c1, which LC retention time is on record?
**A.** Its LC retention time is 4.54 min.

**Q.** With COC=C(C(=O)OC)c1ccccc1Oc1cc(Oc2ccccc2C#N)ncn1 as the compound, how does the LC retention time read?
**A.** The LC retention time was 15.8 min.

**Q.** Which LC retention time does the source give for Nc1ccc(S(=O)(=O)Nc2ncccn2)cc1 here?
**A.** Its LC retention time is 4.16 min.

**Q.** Which LC retention time does the source give for CCOC(=O)CC(SP(=S)(OC)OC)C(=O)OCC (stereo not given) here?
**A.** The LC retention time was 17 min.

**Q.** Which LC retention time does the source give for CN(C)C(=O)Nc1cccc(OC(=O)NC(C)(C)C)c1 here?
**A.** Its LC retention time is 11.6 min.

**Q.** With CCC(C)C1OC2(C=CC1C)CC1CC(CC=C(C)C(OC3CC(OC)C(OC4CC(OC)C(NC(C)=O)C(C)O4)C(C)O3)C(C)C=CC=C3COC4C(O)C(C)=CC(C(=O)O1)C34O)O2 (stereo not given) as the compound, how does the LC retention time read?
**A.** Its LC retention time is 21.2 min.

**Q.** For CC(C)C1(C)N=C(c2ncccc2C(=O)O)NC1=O (stereo not given), which LC retention time is on record?
**A.** The LC retention time was 16.5 min.

**Q.** With COP(N)(=O)SC (stereo not given) as the compound, how does the LC retention time read?
**A.** The LC retention time was 1.61 min.

**Q.** Which LC retention time does the source give for CC(C)(C)c1ccc(CCOc2ncnc3ccccc23)cc1 here?
**A.** The LC retention time was 22 min.

**Q.** For CC12CCC(O)CC1CCC1C2CC(O)C2(C)C(C3=CC(=O)OC3)CCC12O (stereo not given), which LC retention time is on record?
**A.** The LC retention time was 8.14 min.

**Q.** Which LC retention time does the source give for COP(=O)(OC)OC(C)=CC(=O)N(C)C here?
**A.** Its LC retention time is 6.41 min.

**Q.** Which LC retention time does the source give for CNC(=O)Oc1cccc(C)c1 here?
**A.** The LC retention time was 11 min.

**Q.** Which LC retention time does the source give for Nc1ccc(S(=O)(=O)Nc2nccs2)cc1 here?
**A.** The LC retention time was 5.2 min.

**Q.** With COc1cc(Cc2cnc(N)nc2N)cc(OC)c1OC as the compound, how does the LC retention time read?
**A.** The LC retention time was 5.6 min.

**Q.** Which LC retention time does the source give for CNc1nc(NC(C)C)nc(SC)n1 here?
**A.** The LC retention time was 8.8 min.

**Q.** For CCn1cc(C(=O)O)c(=O)c2cnc(N3CCNCC3)nc21, which LC retention time is on record?
**A.** The LC retention time was 4.78 min.

**Q.** For CC1c2cccc(O)c2C(O)=C2C(=O)C3(O)C(O)=C(C(N)=O)C(=O)C(N(C)C)C3C(O)C21 (stereo not given), which LC retention time is on record?
**A.** Its LC retention time is 8.75 min.

**Q.** Which LC retention time does the source give for COP(N)(=S)Oc1ccccc1C(=O)OC(C)C (stereo not given) here?
**A.** Its LC retention time is 14.9 min.

**Q.** Which LC retention time does the source give for CCCCN(CCCC)N=O here?
**A.** Its LC retention time is 15.9 min.

**Q.** Which LC retention time does the source give for COc1ccc2c3c1OC1C(O)C=CC4C(C2)N(C)CCC341 (stereo not given) here?
**A.** Its LC retention time is 3.16 min.

**Q.** Which LC retention time does the source give for CC(=O)CC(c1ccccc1)c1c(O)c2ccccc2oc1=O (stereo not given) here?
**A.** Its LC retention time is 14.9 min.

**Q.** Which LC retention time does the source give for CNC(C)Cc1ccc2c(c1)OCO2 (stereo not given) here?
**A.** Its LC retention time is 5.39 min.

**Q.** Which LC retention time does the source give for CC(C)c1cc(Oc2ccccc2)cc(C(C)C)c1NC(=S)NC(C)(C)C here?
**A.** Its LC retention time is 22.3 min.

**Q.** With CCN(CC)C(=O)c1cccc(C)c1 as the compound, how does the LC retention time read?
**A.** Its LC retention time is 12.8 min.

**Q.** For NC(=O)Cc1cccc2ccccc12, which LC retention time is on record?
**A.** The LC retention time was 10 min.

**Q.** For Cn1c(=O)c2c(ncn2C)n(C)c1=O, which LC retention time is on record?
**A.** Its LC retention time is 5.08 min.

**Q.** With CNC(=O)Oc1cc(C)c(SC)c(C)c1 as the compound, how does the LC retention time read?
**A.** The LC retention time was 15 min.

**Q.** Which LC retention time does the source give for COc1cc(NS(=O)(=O)c2ccc(N)cc2)nc(OC)n1 here?
**A.** Its LC retention time is 10.4 min.

**Q.** For CCNc1nc(NC(C)C)nc(SC)n1, which LC retention time is on record?
**A.** Its LC retention time is 10.4 min.

**Q.** Which LC retention time does the source give for CNC(=O)N(C)c1nc2ccccc2s1 here?
**A.** The LC retention time was 12.1 min.

**Q.** Which LC retention time does the source give for CC1=NNC(=O)N(N=Cc2cccnc2)C1 here?
**A.** Its LC retention time is 1.4 min.

**Q.** For CNC(=O)Oc1cc(C)cc(C(C)C)c1, which LC retention time is on record?
**A.** The LC retention time was 15 min.

**Q.** Which LC retention time does the source give for COP(=S)(OC)Oc1ccc([N+](=O)[O-])cc1 here?
**A.** Its LC retention time is 16.3 min.

**Q.** For CCOP(=S)(OCC)Oc1ccc(=O)n(-c2ccccc2)n1, which LC retention time is on record?
**A.** The LC retention time was 16.1 min.
